Measured values as given in patent US9914697B2, “Methods for making polymorphs of bromfenac sodium and bromfenac sodium formulations” (Johnson Matthey Public Limited Company, priority 2009, dated 2018).

Columns and labels:
Type in all cases: physicochemical
[1] = Stability of Form I polymorph on exposure to water vapour (XRPD and water content analyses); conditions: moisturized alongside a dish of water in a bag sealed under nitrogen for 19 h
Procedure: Sodium salt of 2-amino-3-(4-bromobenzoyl)phenylacetic acid, Form I polymorph (0.6 g) was placed in a drying dish alongside a dish containing water (20 g) in a plastic bag. The bag was sealed under nitrogen and the product allowed to moisturize for 19 h.

[2] = Stability of polymorph towards atmospheric moisture (hydration and conversion); conditions: must be protected from atmospheric moisture, hydrates to Form I
Source text: If so desired, the above-described procedures for producing bromfenac sodium Form I may be adapted and modified so as to provide a product that is a mixture of bromfenac sodium Form I and bromfenac sodium Form II. Bromfenac sodium Form II is a polymorph that is believed to be a monohydrate of bromfenac sodium, i.e., containing one water molecule per molecule of bromfenac sodium, and characterized by a powder x-ray diffraction pattern having main peaks expressed as 2-theta at about 11.3, 14.4, 16.5, 17.3, 18.5, 19.4, 20.7, 21.0, 22.7, 29.0, 31.8, 34.1 and 36.1 degrees. Drying the crystalline product initially obtained in the crystallization process described above under a vacuum results in the removal of some water of hydration from the sesquihydrate and the formation of the Form II polymorph, as evidenced by XRPD. The vacuum drying conditions may be adjusted so as to vary the Form II polymorph content of the product obtained. For example, higher drying temperatures, lower pressures, and increased drying times will generally all increase the amount of bromfenac sodium Form II present. It is believed that such parameters may be selected so as to provide bromfenac sodium Form II in substantially pure form (i.e., substantially free of any bromfenac sodium Form I or any other polymorph). […]

[3] = Rate of dissolution in water; conditions: compared with bromfenac sodium Form I or other hydrated forms
[4] = Water adsorption under wet nitrogen hydration conditions in vacuum oven; conditions: 30-35° C. vacuum oven (5 mm Hg), 17 hours

Nc1c(CC(=O)[O-])cccc1C(=O)c1ccc(Br)cc1.Nc1c(CC(=O)[O-])cccc1C(=O)c1ccc(Br)cc1.O.O.O.[Na+].[Na+] [Bromfenac sodium Form I, sodium salt of 2-amino-3-(4-bromobenzoyl)phenylacetic acid, sesquihydrate]
change in polymorphic form (XRPD and water content analyses) [1]: no change in polymorphic form

Nc1c(CC(=O)[O-])cccc1C(=O)c1ccc(Br)cc1.[Na+] [Bromfenac sodium Form II, sodium salt of 2-amino-3-(4-bromobenzoyl)phenylacetic acid]
stability of the polymorph [2]: not stable

Nc1c(CC(=O)[O-])cccc1C(=O)c1ccc(Br)cc1.[Na+] [Bromfenac sodium Form III, sodium salt of 2-amino-3-(4-bromobenzoyl)phenylacetic acid]
rate of dissolution in water [3]: significantly lower
water content of sample after wet nitrogen hydration conditions [4]: did not change
